Laboratory results: ChEMBL document CHEMBL1201862, “PubChem BioAssay data set” (2004)
Activity calls are given as the source filed them.

What was measured:
[1] = YAP1 pathway inhibition via CTGF transcript levels, dose response, cell-based, DLD1 colon cancer, RT-qPCR, cherry-pick (AID 1053122); type: functional; details: Cancer cell lines
[2] = CTGF mRNA reduction under YAP1 overexpression, dose response, mechanism study for YAP1 pathway inhibitor project, DLD1 cells, RT-qPCR, cherry-pick (AID 1053127); type: functional, cell-based; details: DLD-1
[3] = P. falciparum ATP4 D1247Y mutant growth inhibitors, dose response, NITD609-resistant line, SYBR Green, dry powder (AID 1159571); type: functional, cell-based;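 further: parasites synchronized at ring stage by sorbitol before testing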
[4] = HepG2 cell cytotoxicity, dose response, cytotoxicity control, plate reader, dry powder samples (AID 1159569); type: functional, cell-based;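 further: inhibitor potency with signal falling toward the positive control level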
[5] = P. falciparum 3D7-ScDHODH growth inhibitors, dose response, SYBR Green, dry powder samples (AID 1159570); type: functional, cell-based;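 further: parasite growth measured after 72 hours of compound exposure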
[6] = P. falciparum Dd2 growth inhibitors, dose response, SYBR Green, dry powder samples (AID 1159566); type: functional, cell-based;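 further: potency for growth inhibition with lower SYBR green DNA signal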
[7] = P. falciparum Dd2 growth inhibitors, dose response, SYBR Green, cherry-picked samples (AID 1159567); type: functional, cell-based
[8] = Plasmodium falciparum Dd2 Sybr green parasite growth Measured in Cell-Based and Microorganism Combination System Using Plate Reader - 2153-01_Inhibitor_Dose_DryPowder_Activity_Set3.; type: functional
[9] = HepG2 cell cytotoxicity, dose response, cytotoxicity control, cherry-picked samples (AID 1159577); type: functional, cell-based
[10] = Mtb BioA inhibitors by displacement, dose response, biochemical, coupled fluorescence displacement, 20-point, dry powder (AID 743357); type: functional
[11] = NIH:OVCAR-3 ovarian cancer cell cytotoxicity, dose response, PAX8 inhibitor project, plate reader, dry powder samples (AID 743044); type: functional, cell-based
[12] = non-specific cell cytotoxicity, dose response, cytotoxicity control for PAX8 inhibitor project, plate reader, dry powder samples (AID 743021); type: functional, cell-based
[13] = cytotoxicity in OVCAR8 ovarian cancer cells, dose response, PAX8 project, cell-based, plate reader, dry powder samples (AID 743197); type: functional; details: OVCAR-8
Paired box protein Pax-8 = Paired box protein Pax-8 (Homo sapiens, UniProt Q06710); assay: inhibitors of PAX8-driven TPO luciferase reporter, dose response, RMG-I cells, cherry-pick (AID 687027); type: functional, cell-based;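 further: luciferase reporter driven by Pax8 target thyroperoxidase promoter measured by SteadyGlo luminescence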
Sequence of Paired box protein Pax-8 (Q06710 whole entry): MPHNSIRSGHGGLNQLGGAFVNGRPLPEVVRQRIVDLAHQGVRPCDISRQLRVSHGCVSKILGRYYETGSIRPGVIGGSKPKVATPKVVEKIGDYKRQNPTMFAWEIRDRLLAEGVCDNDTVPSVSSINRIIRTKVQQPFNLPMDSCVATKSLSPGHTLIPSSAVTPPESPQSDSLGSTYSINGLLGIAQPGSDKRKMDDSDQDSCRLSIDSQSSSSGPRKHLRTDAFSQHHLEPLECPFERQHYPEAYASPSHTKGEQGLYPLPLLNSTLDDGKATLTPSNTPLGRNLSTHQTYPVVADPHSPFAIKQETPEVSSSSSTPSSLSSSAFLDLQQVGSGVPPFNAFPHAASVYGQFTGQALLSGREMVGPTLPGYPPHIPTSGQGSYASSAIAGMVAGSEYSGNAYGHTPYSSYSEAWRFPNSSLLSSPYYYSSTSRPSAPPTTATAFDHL

[14] = IOSE-T80 ovarian epithelial cell cytotoxicity, dose response, cytotoxicity control for PAX8 inhibitor project, plate reader, dry powder samples (AID 743045); type: functional, cell-based
[15] = HCT116 cell viability decrease, GSK3B pretreatment – CellTiter-Glo, IC50, dose response (AID 1117339); type: functional; details: HCT-116
[16] = cytotoxicity toward HCT116 cells – cell-based, CellTiter-Glo luminescence, IC50, dose response (AID 1117332); type: functional; details: HCT-116
[17] = RKO cell viability reduction, dose response, CellTiter-Glo luminescence (AID 1117322); type: functional
[18] = cytotoxicity toward Colo320 cells – cell-based, CellTiter-Glo luminescence, IC50, dose response (AID 1117334); type: functional; details: COLO 320
[19] = cytotoxicity toward HT-29 cells – cell-based, CellTiter-Glo luminescence, IC50, dose response (AID 1117330); type: functional
[20] = SNU-C1 cell viability reduction, dose response, CellTiter-Glo luminescence (AID 1117323); type: functional, cell-based
[21] = CellTiter-Glo luminescent dose response of DLD-1 viability loss (AID 1117352); type: functional
[22] = A549 cell cytotoxicity, dose response, cytotoxicity control, plate reader, dry powder, set 6 (AID 743312); type: functional, cell-based
cells [23] = details: HEK293
[24] = Luminescence Cell-Based Dose Response HTS to Identify Inhibitors of 5'UTR Stem-Loop Driven Prion Protein mRNA Translation in H4 Neuroglioblastoma Cells. [Related pubchem assays: 1827 (Project Summary), 1813 (Primary HTS)]; type: functional
H4 [25] = assay: inhibitors of control reporter signal in H4 cells – cell-based, plate reader, dry powder samples, counter-screen for prion reporter project, dose response (AID 540255); type: functional; details: Homo sapiens
[26] = cytotoxicity dependent on PAX8, dose response, cell-based, plate reader, dry powder (AID 743049); type: functional
[27] = inhibitors of SNCA 5'UTR-driven translation, confirmation, luminescence, H4 neuroglioblastoma cells, dose confirmation (AID 2454); type: functional, cell-based;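 further: H4 neuroglioblastoma cells carrying an alpha-synuclein 5'UTR luciferase reporter; potency for inhibition of the luciferase signal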
[28] = Shn3 3'UTR reporter inhibitors, dose response, cell-based, Clone20 osteoblasts, firefly luciferase, cherry-picked (AID 624132); type: functional;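 further: firefly luciferase luminescence from reporter carrying the Shn3 3'UTR in osteoblasts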
[29] = cytotoxicity in COV362 ovarian cancer cells, dose response, cytotoxicity control for PAX8 inhibitor project, cell-based, plate reader, dry powder, SA12 (AID 743144); type: functional
[30] = cytotoxicity in HEK-293T cells, dose response, cytotoxicity control for BCR NF-kB inhibitor project, luminescence, B-cell screen hits (AID 489021); type: functional, cell-based;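 further: HEK-293T cells carrying an NF-kB luciferase reporter; cells exposed to compound for about 14 hours before viability readout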
[31] = luciferase reporter signal reduction – luminescence, H4-C neuroglioblastoma cells, dose response (AID 2458); type: functional, cell-based;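 further: H4 neuroglioblastoma cells stably carrying a luciferase reporter gene fusion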
[32] = inhibitors of SNCA 5'UTR-driven reporter translation, confirmation, H4 neuroglioma cells, luminescence (AID 1988); type: functional, cell-based
[33] = PAX2 cell-based inhibition, dose response, selectivity assay for PAX8 inhibitor project, plate reader, dry powder samples (AID 743048); type: functional;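 further: HEK293 cells carrying a WT1 promoter luciferase reporter driven by expressed Pax2; potency is for inhibition of Pax2 driven reporter signal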
[34] = reduction of Shn3 3'UTR firefly luciferase signal, dose response, Schnurri-3 inhibitor project, cell-based, Clone20 osteoblasts, cherry-pick, set 2 (AID 720490); type: functional;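 further: actives lower the luminescence signal as inhibitors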
H4 [35] = assay: Inhibitors of Prion Protein 5' UTR mRNA Measured in Cell-Based System Using Plate Reader - 2078-01_Inhibitor_Dose_DryPowder_Activity. [Related pubchem assays (depositor defined):AID488894]; type: functional; details: Homo sapiens
[36] = inhibitors of firefly luciferase expression or activity, dose response, H4 neuroglioma cells, luminescence (AID 1990); type: functional, cell-based
[37] = Luminescence-based counterscreen assay for KLF5 inhibitors: dose response cell-based high throughput screening assay to identify cytotoxic compounds using the IEC-6 intestinal epithelial cell line. [Related pubchem assays: 1700 (Primary screen.), 1834 (Confirmation screen.), 1858 (Summary AID.), 1905 (Counterscreen.)]; type: functional
[38] = PAX5 activity inhibitors, dose response, selectivity assay for PAX8 inhibitor project, cell-based, plate reader, dry powder samples (AID 743047); type: functional;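 further: HEK293 cells carrying a Pax5 driven CD19 promoter luciferase reporter; potency of inhibitors that lower reporter luminescence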
cells [39] = type: functional, cell-based
HEK293 = assay: inhibitors of LMP1-driven NF-kB reporter, dose response, cell-based, HEK293, luciferase, cherry-pick (AID 588343); type: functional, Homo sapiens; details: Homo sapiens, HEK293
Transthyretin = Transthyretin (Homo sapiens, UniProt P02766); assay: Luminescence-based cell-based high throughput dose response assay to identify activators of Transthyretin (TTR) transcription.; type: functional
INS1 = assay: beta cell apoptosis inhibitors, cytokine rescue, dose response, luminescence, retest (AID 449756); type: functional, cell-based; details: Rattus norvegicus;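 further: cell death triggered by IL-1 beta plus TNF-alpha plus IFN-gamma mixture; protective hits raise ATP signal compared with cytokine alone wells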
[40] = target: T1, COUP transcription factor 2 (Homo sapiens, UniProt P24468); assay: Luminescence-based cell-based high throughput dose response assay to identify inhibitors of COUP-TFII (NR2F2).; type: functional;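 further: HEK293 cells transiently cotransfected with COUP-TFII expression vector and reporter; luciferase reporter luminescence driven by COUP-TFII from the pX2-168 reporter plasmid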
T1 sequence (P24468 whole entry): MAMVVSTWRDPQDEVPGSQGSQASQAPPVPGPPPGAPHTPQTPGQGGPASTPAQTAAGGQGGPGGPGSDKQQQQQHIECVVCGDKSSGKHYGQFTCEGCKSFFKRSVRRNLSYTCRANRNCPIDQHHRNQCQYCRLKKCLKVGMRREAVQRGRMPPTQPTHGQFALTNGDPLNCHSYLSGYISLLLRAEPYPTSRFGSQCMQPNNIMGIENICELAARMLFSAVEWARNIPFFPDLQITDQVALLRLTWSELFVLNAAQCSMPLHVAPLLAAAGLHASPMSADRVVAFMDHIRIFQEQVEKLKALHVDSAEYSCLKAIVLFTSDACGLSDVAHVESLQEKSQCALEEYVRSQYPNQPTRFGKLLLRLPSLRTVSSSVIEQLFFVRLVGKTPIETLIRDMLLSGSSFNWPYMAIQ

[41] = target: Glutathione-S-transferase (Schistosoma japonicum, UniProt Q26513); assay: biotin-GST/anti-GST TR-FRET signal inhibitors, dose response, artefact control for Vif-APOBEC3G degradation inhibitor project, biochemical (AID 1117362); type: functional
Sequence of Glutathione-S-transferase (Q26513 whole entry): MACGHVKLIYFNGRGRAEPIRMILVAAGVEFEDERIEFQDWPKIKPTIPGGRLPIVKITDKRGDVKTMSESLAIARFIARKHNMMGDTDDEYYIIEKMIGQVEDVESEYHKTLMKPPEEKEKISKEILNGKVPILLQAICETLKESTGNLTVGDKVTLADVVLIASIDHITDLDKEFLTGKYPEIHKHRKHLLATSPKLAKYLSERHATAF

[42] = THP-1 cell cytotoxicity, dose response, cytotoxicity control for Vif-APOBEC3G degradation inhibitor project, THP-1 cells (AID 1117359); type: functional; details: Human immunodeficiency virus 1, THP-1

COc1cccc(-c2ccc([C@H]3[C@H]4CN(C(=O)Cc5ccncc5)CCCCN4[C@H]3CO)cc2)c1
active: AC50 [1] 2.79 µM | AC50 [2] 9.34 µM

CO[C@@H]1CN(C)C(=O)c2ccc(NC(=O)Nc3ccccc3Cl)cc2OC[C@@H](C)N(C)C[C@H]1C
inactive: AC50 [9] > 39 µM
active: AC50 [3] 0.512 µM | AC50 [4] 62.2 µM | AC50 [5] 4.25 µM | AC50 [6] 0.102 µM | AC50 [7] 0.666 µM | AC50 [8] 0.446 µM

CN(C)C(=O)c1ccc(N2CCN(C(=O)c3ccc4c(c3)OCO4)CC2)cc1
active: AC50 [10] 14 µM

COc1ccccc1C#Cc1ccc([C@H]2[C@H](C#N)N(C(=O)C3CCC3)[C@H]2CO)cc1
active: AC50 [11] 12.6 µM | AC50 [12] 32.8 µM | AC50 [13] 23.4 µM | AC50 (Paired box protein Pax-8) 5.55 µM | AC50 [14] 56.5 µM

Cc1ccc2c(Br)cc(Br)c(O)c2n1 [BROQUINALDOL]
inactive: IC50 [19] > 6.67 µM | IC50 [20] 12.8 µM
active: IC50 [15] 1.03 µM | IC50 [16] 1.16 µM | IC50 [17] 0.311 µM | IC50 [18] 0.001 µM | IC50 [21] 4.77 µM

Cc1ccc(C(C)C)c(OCCn2c(=O)[nH]c3ccccc32)c1
active: AC50 [22] 23.1 µM | AC50 (cells [23]) 32.4 µM

O=C(CN1C(=O)c2ccccc2S1(=O)=O)c1ccc(Cl)cc1Cl
inactive: IC50 [30] > 80 µM
active: EC50 [24] < 0.1 µM | AC50 (H4 [25]) 0.456 µM | AC50 [26] 88.1 µM | EC50 [27] 0.774 µM | AC50 [28] 3.53 µM | AC50 [29] 93.5 µM | EC50 [31] 0.595 µM | EC50 [32] < 0.1 µM | AC50 [33] 1.18 µM | AC50 [34] 5.38 µM | AC50 (H4 [35]) 0.168 µM | EC50 [36] 0.31 µM | AC50 [38] 1.37 µM | AC50 (Paired box protein Pax-8) 2.93 µM | EC50 (cells [39]) 0.794 µM
> 39.8 µM (not active): IC50 [37]

COc1ccc2cc3c(N)nn(C(=O)c4ccccc4[N+](=O)[O-])c3nc2c1
active: AC50 (HEK293) 2.75 µM
inactive: EC50 (Transthyretin) > 167 µM

Cc1cccc2cc(-c3ccccc3)c(-c3ccccc3)c[n+]12
active: AC50 (INS1) 4.26 µM | IC50 [40] 8.22 µM | IC50 [41] 18.7 µM | CC50 [42] 12.2 µM
